# Bridge positions count the residues as written; N and C are the ends. Square brackets hold non-standard residues; d marks the D form. Ends that are not written are not given here. cellulose = not defined here; βAla = NCCC(=O)O
# Columns and labels:
# Type in all cases: binding
# Design in all cases: key: No binding of immunoglobulin for the defined peptide variant, detection negative: 0; Binding of immunoglobulin for the defined peptide variant, detection positive: +
# serum albumin = assay: Cellulose-immobilized 13-mer peptide variants incubated with serum albumin (negative control), anti-human IgG-AP detection; conditions: blocking buffer without addition, 3 h room temperature
# Procedure: (§1) Peptides consisting of 13 amino acids were synthesized by solid phase synthesis (Houghten, 1985) on a cellulose matrix with (βA)(βA) as a spacer group.
# (§2) The immobilized peptides were tested for their immunoglobulin binding capability by incubation with human IgG-Fc in a buffered solution and by incubation with human plasma.
# (§3) Thus, the peptide variants immobilized on solid phases were washed with T-TBS buffer (136 mM NaCl, 1.6 mM KCl, 0.05% (v/v) Tween 20, 50 mM Tris-HCl, pH 8.0) and subsequently treated with blocking buffers (5% (w/v) saccharose, 4% (w/v) bovine serum albumin in T-TBS). Incubation of the immobilized peptides with IgG-Fc (1 μg/ml) in blocking buffer and human serum (diluted 1:10,000 in blocking buffer) was effected for 3 h at room temperature. For checking the specificity of the binding, buffered serum albumin solution (blocking buffer) without addition was included as a control. Thereafter, the peptide variants immobilized on the solid phases were washed three more times with T-TBS buffer.
# (§4) After incubation with alkaline phosphatase-conjugated anti-human IgG antibody (1.2 μg/ml) in blocking buffer, detection of the immunoglobulin binding was effected by means of NBT (nitroblue tetrazolium chloride)/BCIP (5-bromo-4-chloro-3-indolyl phosphate toluidine salt) as a substrate (200 μl of parent solution (18.75 mg/ml NBT and 9.4 mg/ml BCIP in 67% (v/v) DMSO) in 10 ml developing buffer (100 mM Tris-HCl, 100 mM NaCl, 5 mM MgCl2, pH 9.5)).
# human IgG-Fc = assay: Cellulose-immobilized 13-mer peptide variants incubated with human IgG-Fc, anti-human IgG-AP detection; conditions: IgG-Fc 1 μg/ml in blocking buffer, 3 h room temperature
# Procedure: as §1, §2, §3, §4
# [1] = system: immunoglobulins in human plasma; assay: Cellulose-immobilized 13-mer peptide variants incubated with human plasma, anti-human IgG-AP detection; conditions: human plasma as sample, diluted 1:10,000 in blocking buffer, 3 h room temperature
# Procedure: as §1, §2, §3, §4
Substance,Result for incubation with serum albumin (immunoglobulin binding detection) (serum albumin),Result for incubation with human IgG-Fc (immunoglobulin binding detection) (human IgG-Fc),Result for incubation with human plasma (immunoglobulin binding detection) [1]
01A: cellulose-bound 13-mer variant ACAWHLGELVWCT-(βA)(βA) (ACAWHLGELVWCT-{βAla-βAla-cellulose}; disulfide 2-12 (inferred); reading uncertain; also: printed as ACAWHLGELVWCT-(βA)(βA)),0,+,+
01C: cellulose-bound 13-mer variant CCAWHLGELVWCT-(βA)(βA) (CCAWHLGELVWCT[βAla][βAla]; cysteine pairing not given here; also: bound to cellulose support),0,0,0
"01D: starting 13-mer DCAWHLGELVWCT-(βA)(βA), R1=amino, cellulose-bound",0,+,+
01E: cellulose-bound 13-mer variant ECAWHLGELVWCT-(βA)(βA) (ECAWHLGELVWCT-{βAla-βAla-cellulose}; disulfide 2-12 (inferred); reading uncertain; also: printed as ECAWHLGELVWCT-(βA)(βA)),0,+,+
01F: cellulose-bound 13-mer variant FCAWHLGELVWCT-(βA)(βA) (FCAWHLGELVWCT-{βAla-βAla-cellulose}; disulfide 2-12 (inferred); reading uncertain; also: printed as FCAWHLGELVWCT-(βA)(βA)),0,0,0
01G: cellulose-bound 13-mer variant GCAWHLGELVWCT-(βA)(βA) (GCAWHLGELVWCT-{βAla-βAla-cellulose}; disulfide 2-12 (inferred); reading uncertain; also: printed as GCAWHLGELVWCT-(βA)(βA)),0,+,+
01H: cellulose-bound 13-mer variant HCAWHLGELVWCT-(βA)(βA) (HCAWHLGELVWCT-{βAla-βAla-cellulose}; disulfide 2-12 (inferred); reading uncertain; also: printed as HCAWHLGELVWCT-(βA)(βA)),0,+,0
01I: cellulose-bound 13-mer variant ICAWHLGELVWCT-(βA)(βA) (ICAWHLGELVWCT-{βAla-βAla-cellulose}; disulfide 2-12 (inferred); reading uncertain; also: printed as ICAWHLGELVWCT-(βA)(βA)),0,0,0
01K: cellulose-bound 13-mer variant KCAWHLGELVWCT-(βA)(βA) (KCAWHLGELVWCT-{βAla-βAla-cellulose}; disulfide 2-12 (inferred); reading uncertain; also: printed as KCAWHLGELVWCT-(βA)(βA)),0,+,0
01L: cellulose-bound 13-mer variant LCAWHLGELVWCT-(βA)(βA) (LCAWHLGELVWCT-{βAla-βAla-cellulose}; disulfide 2-12 (inferred); reading uncertain; also: printed as LCAWHLGELVWCT-(βA)(βA)),0,+,0
01M: cellulose-bound 13-mer variant MCAWHLGELVWCT-(βA)(βA) (MCAWHLGELVWCT-{βAla-βAla-cellulose}; disulfide 2-12 (inferred); reading uncertain; also: printed as MCAWHLGELVWCT-(βA)(βA)),0,+,0
01N: cellulose-bound 13-mer variant NCAWHLGELVWCT-(βA)(βA) (NCAWHLGELVWCT-{βAla-βAla-cellulose}; disulfide 2-12 (inferred); reading uncertain; also: printed as NCAWHLGELVWCT-(βA)(βA)),0,+,0
01P: cellulose-bound 13-mer variant PCAWHLGELVWCT-(βA)(βA) (PCAWHLGELVWCT-{βAla-βAla-cellulose}; disulfide 2-12 (inferred); reading uncertain; also: printed as PCAWHLGELVWCT-(βA)(βA)),0,+,0
01Q: cellulose-bound 13-mer variant QCAWHLGELVWCT-(βA)(βA) (QCAWHLGELVWCT-{βAla-βAla-cellulose}; disulfide 2-12 (inferred); reading uncertain; also: printed as QCAWHLGELVWCT-(βA)(βA)),0,+,0
01R: cellulose-bound 13-mer variant RCAWHLGELVWCT-(βA)(βA) (RCAWHLGELVWCT-{βAla-βAla-cellulose}; disulfide 2-12 (inferred); reading uncertain; also: printed as RCAWHLGELVWCT-(βA)(βA)),0,+,0
01S: cellulose-bound 13-mer variant SCAWHLGELVWCT-(βA)(βA) (SCAWHLGELVWCT-{βAla-βAla-cellulose}; disulfide 2-12 (inferred); reading uncertain; also: printed as SCAWHLGELVWCT-(βA)(βA)),0,+,0
01T: cellulose-bound 13-mer variant TCAWHLGELVWCT-(βA)(βA) (TCAWHLGELVWCT-{βAla-βAla-cellulose}; disulfide 2-12 (inferred); reading uncertain; also: printed as TCAWHLGELVWCT-(βA)(βA)),0,0,0
01V: cellulose-bound 13-mer variant VCAWHLGELVWCT-(βA)(βA) (VCAWHLGELVWCT-{βAla-βAla-cellulose}; disulfide 2-12 (inferred); reading uncertain; also: printed as VCAWHLGELVWCT-(βA)(βA)),0,0,0
01W: cellulose-bound 13-mer variant WCAWHLGELVWCT-(βA)(βA) (WCAWHLGELVWCT-{βAla-βAla-cellulose}; disulfide 2-12 (inferred); reading uncertain; also: printed as WCAWHLGELVWCT-(βA)(βA)),0,0,0
01Y: cellulose-bound 13-mer variant YCAWHLGELVWCT-(βA)(βA) (YCAWHLGELVWCT-{βAla-βAla-cellulose}; disulfide 2-12 (inferred); reading uncertain; also: printed as YCAWHLGELVWCT-(βA)(βA)),0,0,0

# From patent US7205382B2, “Peptides, the production and use thereof for binding immunoglobulins” (Fresenius Medical Care Affina GmbH, priority 2000, dated 2007)
